Laboratory results published in ChEMBL document CHEMBL1158013, “Absolute structures of new briarane diterpenoids from junceella fragilis” (J Nat Prod, 1999).
Activity calls are given as the source filed them.

Experiments:
Assay type in all cases: functional, cell-based
P388 = experiment: Cytotoxicity against mouse P388 cells
A549 = experiment: Cytotoxicity against human A549 cells
HT-29 = experiment: Cytotoxicity against human HT-29 cells
SK-MEL-28 = experiment: Cytotoxicity against human SK MEL28 cells

Measured: Activity

CC(=O)O[C@H]1CC[C@]2(CO2)[C@@H]2[C@H](OC(C)=O)[C@@]3(O)[C@H](/C=C(/C)[C@H](OC(C)=O)C[C@H](OC(C)=O)[C@@]12C)OC(=O)[C@@H]3C
inactive: all assays above

CC(=O)O[C@H]1CC[C@]2(CO2)[C@@H]2[C@H](OC(C)=O)[C@@]3(O)[C@H](/C=C(/C)[C@H](O)C[C@H](OC(C)=O)[C@@]12C)OC(=O)[C@@H]3C
inactive: all assays above

C=C1[C@H]2C[C@@H](OC(C)=O)[C@@]3(C)[C@@H](OC(C)=O)CC[C@]4(CO4)[C@@H]3[C@@H](OC(C)=O)[C@]3(O2)[C@@H](C)C(=O)O[C@H]3[C@H]1Cl
inactive: all assays above

C=C1CC[C@H](OC(C)=O)[C@@]2(C)[C@H]1[C@@H](OC(C)=O)[C@@]13O[C@](O)(C[C@H]2OC(C)=O)C(=C)C[C@@H]1OC(=O)[C@@H]3C
inactive: all assays above

CC(=O)O[C@H]1CC/C(C)=C\[C@@H]2OC(=O)[C@H](C)[C@@]2(O)[C@@H](OC(C)=O)[C@H]2[C@]3(CC[C@H](OC(C)=O)[C@]12C)CO3
inactive: all assays above

C=C1CC[C@H](OC(C)=O)[C@]2(C)[C@@H](OC(C)=O)C[C@@H](OC(C)=O)/C(C)=C\[C@@H]3OC(=O)[C@H](C)[C@]3(O)[C@@H](OC(C)=O)[C@@H]12
inactive: all assays above

C=C1CC[C@H](OC(C)=O)[C@]2(C)[C@@H](OC(C)=O)C[C@@H](O)/C(C)=C\[C@@H]3OC(=O)[C@H](C)[C@]3(O)[C@@H](OC(C)=O)[C@@H]12
inactive: all assays above

C=C1[C@H](Cl)[C@@H]2OC(=O)[C@H](C)[C@]23O[C@@H]1[C@H](OC(C)=O)[C@H](OC(C)=O)[C@@]1(C)[C@@H](OC(C)=O)CC[C@]2(CO2)[C@@H]1[C@@H]3OC(C)=O
inactive: all assays above
